In brackets after ≈: the same amount, converted by molar mass.
Legend:
Acinetobacter pittii = experiment: Phase IIa non-qualifying baseline uropathogen MIC; assay type: cell-based; conditions: baseline uropathogen recovered at <10^5 CFU/mL
Protocol: (§1) This phase IIa single center study evaluated the safety, tolerability, pharmacokinetics, and efficacy of oral gepotidacin 1500 mg BID for 5 days in female subjects with acute cystitis. Clean catch mid-stream urine specimens were obtained for quantitative culture by standard methods. Urine samples were taken from all participants pre-treatment (baseline) and at all post-baseline visits. All urine samples were sent to a central laboratory (PPD Global Clinical Laboratories, Highland Heights, Ky., USA) for Gram stain, quantitative culture, pathogen identification and susceptibility testing. See FIG. 1 for participant disposition and study outline.
(§2) Susceptibility testing by CLSI broth microdilution and gradient diffusion (fosfomycin only) was conducted (CLSI, 2015, Methods for dilution antimicrobial susceptibility tests for bacteria that grow aerobically; approved standard-tenth edition; and CLSI, 2018. Performance Standards for Antimicrobial Susceptibility Testing; Twenty-seventh Informational Supplement M100-S28). Inclusion in the microbiological intent-to-treat population (micro-ITT), required growth of a qualifying baseline uropathogen (≥10^5 CFU/mL). See FIG. 2 for the baseline algorithm.

[1] = test system: Citrobacter freundii complex; experiment: Phase IIa non-qualifying baseline uropathogen MIC; assay type: cell-based; conditions: baseline uropathogen recovered at <10^5 CFU/mL
Protocol: as §1, §2

E. coli = experiment: Neutropenic mouse thigh infection model PK/PD; assay type: in vivo
Protocol: (§3) PK and PD studies using gepotidacin were conducted in murine (male CD-1 mice) thigh and kidney infections. The administered doses ranged from 1 to 200 mg/kg SC every 6 hours starting 1h post infection. Infected tissues were evaluated for bacterial burden at 24 h post infection (baseline controls at 1 h post infection).
(§4) Efficacy was determined against E. coli ALL, 997577, ATCC25922, IR5 and NCTC13441 (MICs of 1 to 4 μg/mL) in thigh-infected neutropenic (I−) mice and against E. coli ALL in kidney-infected immunocompetent (I+) and I− mice. The PopPK model was used to determine GEP exposures associated with efficacy. PK-PD analyses were conducted using Phoenix WinNonLin 6.3 (Pharsight). The change in login colony forming units (CFU) from baseline were correlated with free drug (f) AUC:MIC using an inhibitory model from the Phoenix library, and model parameter values for each isolate were used to calculate the plasma fAUC:MIC associated with stasis, 1- or 2-login reductions in CFU.
(§5) PD studies were conducted using thigh and/or kidney infection models in neutropenic or competent mice (N=5/group). Mice were infected with a bacterial suspension in log phase: 100 μL in the left thigh muscle or 50 μL in each of both kidneys (100 μl total). Final inocula across all isolates were 6.0 to 7.0 login CFU/mouse. Dose-ranging studies were conducted with 5 isolates (see Table 1). Starting 1 hr after infection, GEP was given SC (0.2 mL/mouse) at discrete doses of 1-200 mg/kg every 6 hours (q6) for a 24-hour period (4 doses in total). Mice were euthanized 24 hr after start of therapy (6 hr after the last dose), and infected thighs or kidneys were processed to determine viable bacterial counts (CFU). Baseline CFU were obtained from untreated mice at 1 hr post infection and growth control CFU from saline-treated mice at 24 hr.
NCA analyses were conducted with the simulated data.
PK-PD analysis was conducted using Phoenix WinNonLin 6.3 (Pharsight): • Log10 colony forming units (CFU) from each group were correlated with PK-PD parameters using several inhibitory models from the Phoenix library. • Model parameter values for each isolate were used to calculate the PK-PD parameter value associated with stasis, 1-log or 2-log reductions from baseline 1 h controls.

E. coli ALL = experiment: Neutropenic mouse kidney infection (pyelonephritis/UTI) model PK/PD; assay type: in vivo; conditions: Strain ALL
Protocol: as §3, §4, §5
NCA analyses were conducted with the simulated data. […]

Bilophila wadsworthia = experiment: MIC by CLSI agar dilution, Example 6 Method 1; assay type: cell-based; conditions: 26 isolates, read-out: Gepotidacin MIC90
Protocol: (§6) Antimicrobial activity was determined by agar dilution using the Clinical and Laboratory Standards Institute (CLSI) recommended procedure.
(§7) The compounds were tested in serial two-fold dilutions and the minimum inhibitory concentration (MIC) was determined as the lowest concentration of the compound that inhibited visible growth. Gepotidacin was tested against 333 gram-negative anaerobic and 203 gram-positive anaerobic isolates collected from clinical samples in North America and Europe from 2000 to 2017; the majority collected from 2013 to 2016.
(§8) Ceftriaxone, clindamycin, imipenem, metronidazole, moxifloxacin and piperacillin/tazobactam were included as comparators.

[2] = test system: all the gram-negative anaerobe organisms combined; experiment: MIC by CLSI agar dilution, Example 6 Method 1; assay type: cell-based; conditions: all gram-negative anaerobes combined; read-out: overall MIC90
Protocol: as §6, §7, §8

[3] = test system: gram-positive anaerobe organisms combined; experiment: MIC by CLSI agar dilution, Example 6 Method 1; assay type: cell-based; conditions: gram-positive anaerobes combined; read-out: overall MIC90
Protocol: as §6, §7, §8

Bacteroides stercoris = experiment: MIC by agar dilution, drug-resistant isolates; assay type: cell-based; conditions: ceftriaxone R, 2 isolates
Protocol: as §6, §7
(§9) Additional analysis was performed from the results of the study described in Method 1 above, to determine the in vitro activity of gepotidacin against gram-negative and gram-positive anaerobic organisms with resistance to ceftriaxone, clindamycin, imipenem, metronidazole, moxifloxacin and piperacillin/tazobactam.

[4] = test system: Bifidobacterium pseudocatenulatum; experiment: MIC by agar dilution, drug-resistant isolates; assay type: cell-based; conditions: clindamycin R; 1 isolate
Protocol: as §6, §7, §9

[5] = test system: Fusobacterium, non-speciated; experiment: MIC by agar dilution, drug-resistant isolates; assay type: cell-based; conditions: 1 isolate
Protocol: as §6, §7, §9

Prevotella bivia = experiment: MIC by agar dilution, drug-resistant isolates; assay type: cell-based
Protocol: as §6, §7, §9

Prevotella buccae = experiment: MIC by agar dilution, drug-resistant isolates; assay type: cell-based; conditions: 4 isolates
Protocol: as §6, §7, §9

Veillonella parvula = experiment: MIC by agar dilution, drug-resistant isolates; assay type: cell-based
Protocol: as §6, §7, §9

[6] = 5 E. coli isolates, listed as Gepotidacin

O=c1ccc2ncc(=O)n3c2n1C[C@H]3CN1CCC(NCc2cc3c(cn2)OCCC3)CC1 [gepotidacin, (2R)-2-({4-[(3,4-dihydro-2H-pyrano[2,3-c]pyridin-6-ylmethyl)amino]-1-piperidinyl}methyl)-1,2-dihydro-3H,8H-2a,5,8a-triazaacenaphthylene-3,8-dione]
MIC (Acinetobacter pittii): 1 µg/mL (≈ 2.23 µM) | MIC [1]: 1 µg/mL (≈ 2.23 µM) | Median daily plasma fAUC/MIC for 1-log Drop (E. coli; 5 E. coli isolates): 16 | Median daily plasma fAUC/MIC for 2-log Drop (E. coli; 5 E. coli isolates): 25 | Median daily plasma fAUC/MIC for stasis (E. coli; 5 E. coli isolates): 11 | range of plasma fAUC:MIC ratios for 1-log10 reduction in CFU (E. coli; 5 E. coli isolates): 4-25 | range of plasma fAUC:MIC ratios for 2-log10 reduction in CFU (E. coli; 5 E. coli isolates): 7-40 | range of plasma fAUC:MIC ratios for stasis (E. coli; 5 E. coli isolates): 3-17 | Median daily plasma fAUC/MIC for 1-log Drop (E. coli; [6]): 16.0 | Median daily plasma fAUC/MIC for 2-log Drop (E. coli; [6]): 25.4 | Median daily plasma fAUC/MIC for stasis (E. coli; [6]): 10.6 | Daily fAUC/MIC for 1-log Drop, Mean ± SD (E. coli; 5 strains): 14.6 ± 9.0 | Daily fAUC/MIC for 2-log Drop, Mean ± SD (E. coli; 5 strains): 22.9 ± 12.8 | Daily fAUC/MIC for Stasis, Mean ± SD (E. coli; 5 strains): 9.9 ± 6.8 | Daily fAUC/MIC for 1-log Drop (E. coli; Strain 997577): 16.0 | Daily fAUC/MIC for 2-log Drop (E. coli; Strain 997577): 25.4 | Daily fAUC/MIC for Stasis (E. coli; Strain 997577): 10.6 | Daily fAUC/MIC for 1-log Drop (E. coli; Strain ALL, Neutropenic Thigh): 6.5 | Daily fAUC/MIC for 2-log Drop (E. coli; Strain ALL, Neutropenic Thigh): 13.8 | Daily fAUC/MIC for Stasis (E. coli; Strain ALL, Neutropenic Thigh): 3.0 | Daily fAUC/MIC for 1-log Drop (E. coli; Strain ATCC25922): 21.5 | Daily fAUC/MIC for 2-log Drop (E. coli; Strain ATCC25922): 27.6 | Daily fAUC/MIC for Stasis (E. coli; Strain ATCC25922): 16.8 | Daily fAUC/MIC for 1-log Drop (E. coli; Strain IR5): 4.3 | Daily fAUC/MIC for 2-log Drop (E. coli; Strain IR5): 7.2 | Daily fAUC/MIC for Stasis (E. coli; Strain IR5): 2.8 | Daily fAUC/MIC for 1-log Drop (E. coli; Strain NCTC13441): 24.9 | Daily fAUC/MIC for 2-log Drop (E. coli; Strain NCTC13441): 40.3 | Daily fAUC/MIC for Stasis (E. coli; Strain NCTC13441): 16.2 | Median plasma fAUC:MIC targets ranged (E. coli; stasis to 2-log10 reduction): 11 to 25 | Daily fAUC/MIC for 1-log Drop (E. coli ALL): 8.7 | Daily fAUC/MIC for 2-log Drop (E. coli ALL): 15.6 | Daily fAUC/MIC for Stasis (E. coli ALL): 4.3 | MIC90 (Bilophila wadsworthia): 0.5 µg/mL (≈ 1.11 µM) | MIC90 [2]: 4 µg/mL | MIC90 [3]: 2 µg/mL | Gepotidacin MIC range (Bacteroides stercoris): 0.12 to 1 µg/mL | Gepotidacin MIC range [4]: 4 µg/mL | Gepotidacin MIC range ([5]; ceftriaxone R): 2 µg/mL | Gepotidacin MIC range ([5]; clindamycin R): 2 µg/mL | Gepotidacin MIC range (Prevotella bivia; ceftriaxone R, 1 isolate): 1 µg/mL | Gepotidacin MIC range (Prevotella bivia; clindamycin R, 2 isolates): 0.5 to 4 µg/mL | Gepotidacin MIC range (Prevotella bivia; moxifloxacin R, 2 isolates): 4 µg/mL | Gepotidacin MIC range (Prevotella buccae; ceftriaxone R): 0.25 to 2 µg/mL | Gepotidacin MIC range (Prevotella buccae; clindamycin R): 0.25 to 4 µg/mL | Gepotidacin MIC range (Veillonella parvula; ceftriaxone R, 1 isolate): ≤0.015 µg/mL | Gepotidacin MIC range (Veillonella parvula; clindamycin R, 1 isolate): 0.125 µg/mL | Gepotidacin MIC range (Veillonella parvula; moxifloxacin R, 2 isolates): ≤0.015 to 0.03 µg/mL | Gepotidacin MIC range (Veillonella parvula; pip/tazo R, 1 isolate): 0.03 µg/mL

From patent publication US20220184071A1, “GEPOTIDACIN FOR USE IN THE TREATMENT OF BACTERIAL URINARY TRACT INFECTIONS” (GlaxoSmithKline Intellectual Property Development Limited, priority 2019, published 2022)
